# Patent US12486274B2, “Substituted pyrazolo-pyrimidines and uses thereof” (Verge Analytics, Inc., priority 2020, dated 2025)
# Counter-ions that a name gives are not always drawn.
# Molecular target: Full length human recombinant PIKFYVE (Homo sapiens (Human), UniProt Q9Y2I7)
# Assay: Inhibition of PIKfyve (microfluidic electrophoresis kinase assay)
# Assay type: biochemical
# Details: 2 nM enzyme, PI3P/PS substrate, 3 h at room temperature, 12 concentrations
# Method: Full length human recombinant PIKFYVE expressed in baculovirus expression system as N-terminal GST-fusion protein (265 kDa) was obtained from Carna Biosciences (Kobe, Japan). The kinase substrate was prepared by mixing and sonicating fluorescently-labeled phosphatidylinositol 3-phosphate (PI3P) with phospho-L-serine (PS) at a 1:10 ratio in 50 mM HEPES buffer pH7.5.
# The kinase reactions were assembled in 384-well plates (Greiner) in a total volume of […] as follows. Kinase protein was pre-diluted in an assay buffer comprising 25 mM HEPES, pH 7.5, 1 mM DTT, 2.5 mM MgCl2, and 2.5 mM MnCl2, and 0.005% Triton X-100, and dispensed into a 384-well plate (10 μL per well). Test compounds were serially pre-diluted in DMSO and added to the protein samples by acoustic dispensing (Labcyte Echo). The concentration of DMSO was equalized to 1% in all samples. All test compounds were tested at 12 concentrations. Apilimod was used as a reference compound and was tested in identical manner in each assay plate. Control samples (0%-inhibition, in the absence of inhibitor, DMSO only) and 100%-inhibition (in the absence of enzyme) were assembled in replicates of four and were used to calculate %-inhibition in the presence of compounds. The reactions were initiated by addition of 10 μL of 2× PI3P/PS substrate supplemented with ATP. The final concentration of enzyme was 2 nM, the final concentration of ATP was 10 mM, and the final concentration of PI3P/PS substrate was 1 μM (PI3P). The kinase reactions were allowed to proceed for 3 h at room temperature. Following incubation, the reactions were quenched by addition of […] of termination buffer (100 mM HEPES, pH 7.5, 0.01% Triton X-100, 20 mM EDTA). Terminated plates were analyzed on a microfluidic electrophoresis instrument (Caliper LabChip® 3000, Caliper Life Sciences/Perkin Elmer). The change in the relative fluorescence intensity of the PI (3) P substrate and PI (3,5) P product peaks was measured. The activity in each test sample was determined as the product to sum ratio (PSR): P/(S+P), where P is the peak height of the product, and S is the peak height of the substrate. Percent inhibition (Pinh) was determined using the following equation: Pinh=(PSR0% inh−PSRcompound)/(PSR0% inh−PSR100% inh)*100 in which PSRcompound is the product/sum ratio in the presence of compound, PSR0% inh is the product/sum ratio in the absence of compound, and the PSR100% inh is the product/sum ratio in the absence of the enzyme.
# Sequence of Full length human recombinant PIKFYVE (Q9Y2I7 whole entry): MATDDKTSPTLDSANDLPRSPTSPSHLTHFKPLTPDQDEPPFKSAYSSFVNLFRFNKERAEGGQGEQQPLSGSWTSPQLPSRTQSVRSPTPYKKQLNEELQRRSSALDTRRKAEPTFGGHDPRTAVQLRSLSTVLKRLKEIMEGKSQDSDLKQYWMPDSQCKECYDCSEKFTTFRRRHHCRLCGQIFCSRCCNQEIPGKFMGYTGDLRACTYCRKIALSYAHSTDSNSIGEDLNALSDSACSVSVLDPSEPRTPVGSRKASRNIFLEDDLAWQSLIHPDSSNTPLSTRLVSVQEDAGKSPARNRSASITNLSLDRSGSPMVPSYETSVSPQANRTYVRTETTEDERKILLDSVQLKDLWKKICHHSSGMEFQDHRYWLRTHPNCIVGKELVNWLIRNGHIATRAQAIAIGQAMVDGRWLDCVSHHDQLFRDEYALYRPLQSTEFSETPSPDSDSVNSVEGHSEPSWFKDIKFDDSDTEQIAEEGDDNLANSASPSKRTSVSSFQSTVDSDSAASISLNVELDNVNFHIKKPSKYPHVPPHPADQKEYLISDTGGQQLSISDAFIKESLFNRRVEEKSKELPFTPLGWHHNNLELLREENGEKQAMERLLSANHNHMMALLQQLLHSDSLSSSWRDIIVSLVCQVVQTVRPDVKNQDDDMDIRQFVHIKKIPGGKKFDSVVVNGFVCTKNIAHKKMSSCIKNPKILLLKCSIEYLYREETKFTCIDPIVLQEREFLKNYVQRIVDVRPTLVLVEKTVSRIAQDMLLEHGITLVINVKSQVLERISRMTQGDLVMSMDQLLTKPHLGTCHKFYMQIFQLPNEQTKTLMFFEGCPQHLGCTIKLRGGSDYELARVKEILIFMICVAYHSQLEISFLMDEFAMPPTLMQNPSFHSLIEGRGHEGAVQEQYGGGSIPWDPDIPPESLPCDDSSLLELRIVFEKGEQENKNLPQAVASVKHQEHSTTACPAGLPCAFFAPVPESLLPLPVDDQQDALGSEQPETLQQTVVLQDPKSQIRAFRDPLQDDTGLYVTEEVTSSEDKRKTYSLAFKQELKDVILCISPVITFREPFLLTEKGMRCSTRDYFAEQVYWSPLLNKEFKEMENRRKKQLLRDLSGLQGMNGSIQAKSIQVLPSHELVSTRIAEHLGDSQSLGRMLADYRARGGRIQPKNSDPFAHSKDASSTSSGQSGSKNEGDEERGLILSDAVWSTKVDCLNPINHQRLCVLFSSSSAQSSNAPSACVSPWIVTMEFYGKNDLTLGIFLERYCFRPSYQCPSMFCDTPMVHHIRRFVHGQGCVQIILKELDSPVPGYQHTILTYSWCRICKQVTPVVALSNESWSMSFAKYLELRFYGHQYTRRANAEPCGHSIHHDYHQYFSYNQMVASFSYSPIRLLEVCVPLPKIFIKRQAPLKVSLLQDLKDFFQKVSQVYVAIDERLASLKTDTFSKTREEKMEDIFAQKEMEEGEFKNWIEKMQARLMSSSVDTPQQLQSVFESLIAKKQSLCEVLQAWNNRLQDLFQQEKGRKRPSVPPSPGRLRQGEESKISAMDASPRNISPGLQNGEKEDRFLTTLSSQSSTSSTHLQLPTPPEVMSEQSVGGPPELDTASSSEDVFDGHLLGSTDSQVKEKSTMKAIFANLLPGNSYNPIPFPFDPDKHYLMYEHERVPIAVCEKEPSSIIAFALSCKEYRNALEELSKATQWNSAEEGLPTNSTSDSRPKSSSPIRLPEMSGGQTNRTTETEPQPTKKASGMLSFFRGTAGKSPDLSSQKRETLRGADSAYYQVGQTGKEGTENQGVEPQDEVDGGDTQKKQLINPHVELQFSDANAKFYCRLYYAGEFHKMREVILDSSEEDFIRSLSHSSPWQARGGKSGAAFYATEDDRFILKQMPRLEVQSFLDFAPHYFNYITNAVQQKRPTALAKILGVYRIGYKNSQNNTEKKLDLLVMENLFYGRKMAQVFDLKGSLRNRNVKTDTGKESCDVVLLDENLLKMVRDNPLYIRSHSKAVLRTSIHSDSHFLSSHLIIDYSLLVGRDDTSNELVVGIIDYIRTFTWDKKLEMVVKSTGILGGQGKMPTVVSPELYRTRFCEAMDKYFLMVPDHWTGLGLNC
row,IC50 [nM],Compound
1,> 10000,"Cc1cc(Nc2cc(N3CCOCC3)n3nc(-c4ccncc4)cc3n2)n[nH]1 [Example 5, N-(5-methyl-1H-pyrazol-3-yl)-7-morpholino-2-(4-pyridyl)pyrazolo[1,5-a]pyrimidin-5-amine]"
2,6100,"c1cc(-c2cc3nc(Nc4cc(-c5ccncc5)[nH]n4)cc(N4CCOCC4)n3n2)ccn1 [Example 6, 7-morpholino-2-(4-pyridyl)-N-[5-(4-pyridyl)-1H-pyrazol-3-yl]pyrazolo[1,5-a]pyrimidin-5-amine]"
3,38.4,"Nc1cc(-c2ccccc2)nn1-c1cc(N2CCOCC2)n2nc(-c3ccncc3)cc2n1 [Example 7, 1-(7-morpholino-2-(pyridin-4-yl)pyrazolo[1,5-a]pyrimidin-5-yl)-3-phenyl-1H-pyrazol-5-amine]"
4,6690,"Cc1ccccc1-c1cc(N)n(-c2cc(N3CCOCC3)n3nc(-c4ccncc4)cc3n2)n1 [Example 8, 1-(7-morpholino-2-(pyridin-4-yl)pyrazolo[1,5-a]pyrimidin-5-yl)-3-(o-tolyl)-1H-pyrazol-5-amine]"
5,> 10000,"c1ccc(-c2cnn(-c3cc(N4CCOCC4)n4nc(-c5ccncc5)cc4n3)c2)cc1 [Example 9, 4-[5-(4-phenylpyrazol-1-yl)-2-(4-pyridyl)pyrazolo[1,5-a]pyrimidin-7-yl]morpholine]"

# Further lines, the molecule ahead of its results:
row,Compound,IC50 [nM]
1,"Cc1cccc(-c2ccn(-c3cc(N4CCOCC4)n4nc(-c5cc(C)no5)cc4n3)n2)c1 [Compound 110, 4-[2-(3-methylisoxazol-5-yl)-5-[3-(m-tolyl)pyrazol-1-yl]pyrazolo[1,5-a]pyrimidin-7-yl]morpholine]",2.2
2,"Cc1cccc(-c2ccn(-c3cc(N4CCOCC4)n4nc(-c5nccs5)cc4n3)n2)c1 [Compound 111, 4-[5-[3-(m-tolyl)pyrazol-1-yl]-2-thiazol-2-yl-pyrazolo[1,5-a]pyrimidin-7-yl]morpholine]",2.7
3,"Cc1cccc(-c2ccn(-c3cc(N4CCOCC4)n4nc(-c5cn[nH]c5)cc4n3)n2)c1 [Compound 113, 4-[5-[3-(m-tolyl)pyrazol-1-yl]-2-(1H-pyrazol-4-yl)pyrazolo[1,5-a]pyrimidin-7-yl]morpholine]",2.5
4,"c1ccc(-c2ccn(-c3cc(N4CCOCC4)n4nc(-c5nccs5)cc4n3)n2)cc1 [Compound 114, 4-[5-(3-phenylpyrazol-1-yl)-2-thiazol-2-yl-pyrazolo[1,5-a]pyrimidin-7-yl]morpholine]",100
5,"Cn1cc(-c2cc3nc(-n4ccc(-c5ccccc5)n4)cc(N4CCOCC4)n3n2)cn1 [Compound 115, 4-[2-(1-methylpyrazol-4-yl)-5-(3-phenylpyrazol-1-yl)pyrazolo[1,5-a]pyrimidin-7-yl]morpholine]",62.4
6,"c1ccc(-c2ccn(-c3cc(N4CCOCC4)n4nc(-c5cn[nH]c5)cc4n3)n2)cc1 [Compound 116, 4-[5-(3-phenylpyrazol-1-yl)-2-(1H-pyrazol-4-yl)pyrazolo[1,5-a]pyrimidin-7-yl]morpholine]",80.9
7,"Cc1ccc(-c2cc(Nc3cc(N4CCOCC4)n4nc(-c5ccncc5)cc4n3)[nH]n2)cc1 [Example 1, 7-morpholino-2-(pyridin-4-yl)-N-(3-(p-tolyl)-1H-pyrazol-5-yl)pyrazolo[1,5-a]pyrimidin-5-amine, hydrogen chloride salt]",2590
8,"c1ccc(-c2cc(Nc3cc(N4CCOCC4)n4nc(-c5ccncc5)cc4n3)n[nH]2)cc1 [Example 2, 7-morpholino-N-(5-phenyl-1H-pyrazol-3-yl)-2-(4-pyridyl)pyrazolo[1,5-a]pyrimidin-5-amine]",967
9,"Cc1ccccc1-c1cc(Nc2cc(N3CCOCC3)n3nc(-c4ccncc4)cc3n2)n[nH]1 [Example 3, 7-morpholino-N-[5-(o-tolyl)-1H-pyrazol-3-yl]-2-(4-pyridyl)pyrazolo[1,5-a]pyrimidin-5-amine]",3150
10,"Cc1cccc(-c2cc(Nc3cc(N4CCOCC4)n4nc(-c5ccncc5)cc4n3)[nH]n2)c1 [Example 4, 7-morpholino-N-[3-(m-tolyl)-1H-pyrazol-5-yl]-2-(4-pyridyl)pyrazolo[1,5-a]pyrimidin-5-amine, Hydrogen Chloride Salt]",550
